Source: article PMC10510716

Assay: Paal-Knorr pyrrole formation between a side-chain 1,4-diketone (DOP1, unmasked from 5-methylfuran in TFA/m-cresol 9:1) and a side-chain hydrazide (Nu2) or aminooxy group (Nu5); crude redissolved in mQ water
Details: the molecule shown is the open-chain precursor, 38-membered ring, pH ~2.5, 5.0 mM

Compound: CC(=O)CCC(=O)CCC(=O)NCCC[C@H](NC(C)=O)C(=O)N[C@@H](Cc1c[nH]c2ccccc12)C(=O)N[C@@H](CCCNC(=N)N)C(=O)NCC(=O)N[C@@H](CC(=O)O)C(=O)N[C@@H](Cc1ccc(O)cc1)C(=O)N[C@@H](CO)C(=O)N[C@@H](CCCNC(=O)CON)C(N)=O [Ac-Orn(4,7-dioxooctanoyl)*-W-R-G-D-Y-S-Orn(COCH2ONH2)*-NH2]
- ring closure, overall yield: 5.2%
